These results are taken from the RepoRT retention time repository (doi:10.1186/gb-2013-14-6-r54).

SMILES strings stand for the structures.

The nature of the data set: RP, Hichrom Alltima HP C18, 150 × 2.1 mm, 3 µm, 0.2 mL/min, estimated dead time 1.7 min; A: 90% water + 5% acetonitrile + 5% formic acid; B: acetonitrile; gradient (min/%B) 0/0 5/10 25/20 30/25 45/70 65/0. To be noted: stereoisomer not certain.
Take `O=C(O)CC(O)(CC(=O)O)C(=O)O` [citric acid]: the LC retention time is 3.04 min.

As to `COc1cc(-c2[o+]c3cc(O)cc(O)c3cc2OC2OC(CO)C(O)C(O)C2O)ccc1O` (configuration not stated) [peonidin-3-O-glucoside], the LC retention time is 17.2 min. Turning to `OCC1OC(Oc2cc3c(O)cc(O)cc3[o+]c2-c2ccc(O)c(O)c2)C(O)C(O)C1O` (configuration not stated) [cyanidin-3-O-glucoside], the LC retention time was 14.4 min. `O=C(O)C(O)C(O)C(O)C(O)CO` (configuration not stated) [gluconic acid]: the LC retention time was 2.37 min. Turning to `NC(Cc1cn(C2OC(CO)C(O)C(O)C2O)c2ccccc12)C(=O)O` (configuration not stated) [tryptophan-N-glucoside], the LC retention time is 15.8 min. With `CC1OC(OC2C(=O)c3c(O)cc(O)cc3OC2c2ccc(O)c(O)c2)C(O)C(O)C1O` (configuration not stated) [dihydroquercetin-O-deoxyhexoside (astilbin)] the figure was 19.8 min; with `OCC1OC(OC2(CO)OC(CO)C(O)C2O)C(O)C(O)C1O` (configuration not stated) [di-hexose (sucrose)], 2.52 min; with `O=C(O)C(O)C(O)C(=O)O` (configuration not stated) [tartaric acid], 2.52 min.

Consider `OCC1OC(O)C(O)C(O)C1O` (configuration not stated) [hexose], for which the LC retention time is 2.4 min.

As for `COc1cc(-c2[o+]c3cc(O)cc(O)c3cc2OC2OC(CO)C(O)C(O)C2O)cc(O)c1O` (configuration not stated) [petunidin-3-O-glucoside], the LC retention time is 15.6 min.

Turning to `O=C(O)CC(O)C(=O)O` (configuration not stated) [malic acid], the LC retention time was 2.72 min. As for `O=C(O)C1OC(Oc2c(-c3ccc(O)c(O)c3)oc3cc(O)cc(O)c3c2=O)C(O)C(O)C1O` (configuration not stated) [quercetin glucuronide], the LC retention time was 20 min.

For the compound `O=C(C=Cc1ccc(O)cc1)OCC1OC(Oc2cc3c(O)cc(=O)cc-3oc2-c2ccc(O)c(O)c2)C(O)C(O)C1O` (stereo not drawn) [cyanidin-(coumaroyl)-3-O glucoside, trans isomer], the LC retention time was 27.6 min. With `NC(CCC(=O)NC(CS)C(=O)NCC(=O)O)C(=O)O` (configuration not stated) [glutathione] the figure was 3.04 min; with `OCC1OC(Oc2cc3c(O)cc(O)cc3[o+]c2-c2cc(O)c(O)c(O)c2)C(O)C(O)C1O` (configuration not stated) [delfinidin-3-O-glucoside], 12.5 min.

In the case of `O=C(OC1OC(CO)C(O)C(O)C1O)c1cc(O)c(O)c(O)c1` (configuration not stated) [monogalloyl glucose], the LC retention time is 3.53 min.

For the compound `COc1cc(-c2oc3cc(=O)cc(O)c-3cc2OC2OC(CO)C(O)C(O)C2O)cc(OC)c1O` (configuration not stated) [malvidin-3-O-glucoside], the LC retention time is 18 min.
